The AC50 is the concentration at which the activity in the assay is half-maximal.

The source of these data is PubChem BioAssay AID1035470 (Broad Institute, 2014).

The assay has as its system E. coli WT-GFP vs G2058-humanized RFP, fluorescence, 24 h. In words: E. coli strain growth, wild-type against G2058 humanized RFP mutant – G2058 mutant RFP vs wild-type GFP, cherry-pick, two tests, dose response (AID 1035470).
Where [1] appears, read: E. coli WT-GFP vs G2058-humanized RFP mixed culture, total growth OD600, 24 h.
The mark [2] stands for this setting: measured here: G2058 humanized mutant RFP growth.

The structures appear in SMILES notation. Results filed as inconclusive are left out. Activity calls are given as the source filed them.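 How the source made its calls: active means compound lowering the normal-ribosome reporter at least twice as much as the humanized-ribosome reporter, growth loss under a set limit; inconclusive means no clear call, values can overlap the other calls; inactive means the rest.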 Where only a bound is given, the exact number is not on record here.

As for `Cc1ccc(NS(=O)(=O)c2ccc3c(c2)CCC(=O)N3)cc1C`, the AC50 was > 100 µM (inactive). Besides, the AC50 under setting [1] is > 100 µM.

As to `C[n+]1ccccc1/C=C/c1cc(Br)ccc1O`, the AC50 is > 100 µM (inactive).

As for `CCCN(Cc1ccco1)S(=O)(=O)c1ccc(OC)c(OC)c1`, the AC50 is > 100 µM (inactive). For the same compound, the AC50 under setting [1] is > 100 µM. Under setting [2], the AC50 was > 100 µM.

`CC(CCc1ccccc1)NC(=O)CCC1CCCC1` (stereo unspecified): under setting [1], the AC50 is > 100 µM.

As for `O=C(Nc1cccc(Oc2ccc3c(c2)C(=O)NC3=O)c1)c1cccs1`, the AC50 was > 100 µM (inactive).

With `CCOc1ccc(S(=O)(=O)N(C)c2ccc(OCC(=O)NCc3cccnc3)cc2)cc1`, the AC50 is > 100 µM (inactive). Besides, the AC50 under setting [1] is > 100 µM.

Consider `CCOc1ccccc1C(=O)OCC(=O)NCCc1ccc(OC)cc1`, for which the AC50 was > 100 µM (inactive). In addition, the AC50 under setting [1] was 50.9 µM.

Turning to `COc1ccc(S(=O)(=O)N2CCOc3ccccc32)cc1`, the AC50 was > 100 µM under setting [1] and > 100 µM under setting [2].

For the compound `COc1ccc2nc(SCC(=O)Nc3ccccc3)[nH]c2c1`, the AC50 is > 100 µM (inactive).

As for `O=C(Nc1ccc(C(=O)Nc2ccccc2Cl)cc1)c1cccnc1`, the AC50 is > 100 µM (inactive). Further, under setting [2], the AC50 stood at 8.17 µM.

As to `O=C(CSc1nc(C2CC2)nc2ccccc12)Nc1ccccc1N1CCOCC1`, the AC50 was > 100 µM (inactive). In addition, under setting [1], the AC50 is > 100 µM.

Consider `COc1cccc(NC(=O)COC(=O)Cc2ccc(Br)cc2)c1`, for which the AC50 was > 100 µM (inactive). Also, the AC50 under setting [1] is > 100 µM.

Take `COC(=O)c1c(NC(=O)CCC(=O)O)sc(Cc2ccccc2)c1C`: the AC50 was 28.4 µM. Besides, the AC50 (E. coli WT-GFP vs G2058-humanized RFP mixed culture, OD600 growth, 24 h, test 1) came out at 27 µM. Under setting [1], the AC50 turned out to be 35.7 µM. For the same compound, under setting [2], the AC50 came out at 5.11 µM. For the setting “measured here: mutant RFP, test 1”, the AC50 was 11.9 µM. This compound also had an AC50 (measured here: wild-type GFP, test 1) of 1.53 µM.

With `COc1ccccc1OCC(=O)Nc1ccc(S(=O)(=O)N2CCCCCC2)cc1`, the AC50 is > 100 µM (inactive). Also, the AC50 under setting [1] was > 100 µM.

On to `O=C(CN1C(=O)c2ccccc2C1=O)Nc1cccc(S(=O)(=O)Nc2ccccc2Cl)c1`, for which the AC50 was > 100 µM (inactive). Moreover, the AC50 under setting [1] was > 100 µM.

For the compound `CCC(=O)Nc1nc2c(OC)ccc(OC)c2s1`, the AC50 is > 100 µM (inactive).

`CC(=O)N1CCN(c2nc(-c3cccs3)nc3ccccc23)CC1`: the AC50 was > 100 µM (inactive).

`Cc1ccccc1S(=O)(=O)c1cc2ccccc2nc1N`: under setting [1], the AC50 was > 100 µM.

In the case of `O=C(Nc1ccc2nc(-c3ccccc3)[nH]c2c1)c1cccs1`, the AC50 was > 100 µM (inactive). Besides, the AC50 under setting [1] is 51.4 µM.

Take `Cc1c(C(=O)O)oc2ccc(S(=O)(=O)NC3CCCCCCC3)cc12`: the AC50 is > 100 µM (inactive).

For `COC(=O)c1ccsc1NC(=O)c1cccc(OC)c1`, the AC50 under setting [2] was found to be 5.79 µM.

Consider `O=C(CSc1ccc(-c2cccnc2)nn1)N1CCCc2ccccc21`, for which the AC50 is > 100 µM (inactive).

Regarding `COc1ccc(C(CC(=O)c2ccc(O)cc2)S(=O)(=O)c2ccc(C)cc2)cc1` (stereo unspecified), the AC50 is > 100 µM (inactive).

In the case of `COCC(C)NC(=O)c1nn(Cc2ccccc2)c(=O)c2ccccc12` (stereo unspecified), the AC50 under setting [1] is > 100 µM.

Regarding `COc1cccc(NC(=O)COC(=O)Cc2ccccc2[N+](=O)[O-])c1`, the AC50 is > 100 µM (inactive). Besides, the AC50 under setting [1] is > 100 µM.

In the case of `Cc1ccc(NC(=O)c2ccc([N+](=O)[O-])s2)cc1S(=O)(=O)N1CCOCC1`, the AC50 was > 100 µM (inactive). For the same compound, the AC50 under setting [1] was > 100 µM.

Regarding `Cc1noc(C)c1COc1cccc(C(=O)N2CCc3ccccc32)c1`, the AC50 is > 100 µM (inactive).
